{"source": "patent US6455755B2", "about": "“Leukotriene B4 receptor transgenic mice” (Brigham and Women's Hospital, priority 1999, dated 2002)", "key": {"[1]": {"tested_on": "HEK293 cells with BLTR and ALXR (stable transfectants)", "assay": "Cytosensor microphysiometry of extracellular acidification rate (EAR) in HEK293 cells with BLTR and ALXR", "format": "cell-based, human", "details": "LXA4 1 μM 20 min prior to LTB4 1 μM", "description": "(§1) Cloning and functional expression of hBLTR. Total RNA was isolated from retinoic acid differentiated HL-60 cells using TriZol reagent (GIBCO BRL, Grand Island, N.Y.) and reverse-transcribed for 30 min at 50° C. followed by 40 cycles of polymerase chain reactions (PCR) using Vent DNA polymerase (New England BioLabs, Beverly, Mass.) (98° C. for 1 min, 60° C. for 1 min and 72° C. for 2 min) with specific primers for hBLTR (BLTR-N: 5′[…]-3′ and BLTR-C: 5′[…]-3′) (Fiore, S., Romano, M., Reardon, E. M. and Serhan, C. N. 1993. Induction of functional lipoxin A4 receptors in HL-60 cells. Blood 81: 3395-3403). HBLTR cDNA was inserted into pGL vector (Promega) at HindII-PpuMI site downstream of CD11b promoter. HEK293 cells were transfected with this pGL-CD11b-hBLTR construct using SuperFect reagent (Qiagen, Chatsworth, Calif.). Ligand binding and intracellular Ca^2+ release were carried out as in refs. (Yokomizo, T., Izumi, T., Chang, K., Takuwa, Y. and Shimizu, T. 1997. A G-protein-coupled receptor for leukotriene B4 that mediates chemotaxis. Nature 387: 620-624) and (Ng, C. F., Sun, F. F., Taylor, B. M., Wolin, M. S. and Wong, P. Y. 1991. Functional properties of guinea pig eosinophil leukotriene B4receptors. J. Immunol. 147: 3096-3103), respectively. […]"}, "BLTR [2]": {"target": "T1, BLTR (Homo sapiens, UniProt Q15722)", "T1 sequence (Q15722 whole entry)": "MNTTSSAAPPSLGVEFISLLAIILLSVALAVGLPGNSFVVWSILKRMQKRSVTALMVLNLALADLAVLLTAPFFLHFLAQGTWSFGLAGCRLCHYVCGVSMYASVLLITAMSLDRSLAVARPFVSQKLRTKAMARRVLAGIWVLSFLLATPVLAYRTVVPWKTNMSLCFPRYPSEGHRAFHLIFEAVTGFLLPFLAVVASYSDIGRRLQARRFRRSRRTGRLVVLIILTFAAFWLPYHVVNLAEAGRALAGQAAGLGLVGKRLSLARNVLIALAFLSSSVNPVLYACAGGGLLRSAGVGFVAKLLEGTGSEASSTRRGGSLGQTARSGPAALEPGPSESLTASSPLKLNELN", "assay": "Displacement of specific [3H]-LTB4 binding in HEK293 cells stably transfected with BLTR", "design": "expressed in transfected cells", "description": "as §1"}, "[3]": {"tested_on": "PMN infiltration into lungs", "assay": "Hind limb ischemia-reperfusion induced second organ injury (lung PMN infiltration by MPO)", "format": "in vivo, mouse", "details": "hBLTR transgenic mice", "description": "Hind limb ischemia-reperfusion induced second organ injury. Mice were anesthetized and ATL analog 15-epi-16-para-fluoro-phenoxy-LXA4 (15(R)-16-para-fluoro-phenoxy-17,18,19,20-tetranol-LXA4 methyl ester), prepared as in (Takano, T., Clish, C. B., Gronert, K., Petasis, N. A. and Serhan C. N. 1997. Neutrophil-mediated changes in vascular permeability are inhibited by topical application of aspirin-triggered 15-epi-lipoxin A4 and novel lipoxin B4 stable analogues. J. Clin. Invest. 101: 819-826) or vehicle was administered intravenously to the transgenic mice. Approximately five minutes later, a tourniquet was placed proximally around each hind limb and secured with a metal clamp (Goldman, G., Welboum, R., Klausner, J. M., Kobzik, L., Valeri, C. R. et al. 1992. Mast cells and leukotrienes mediate neutrophil sequestration and lung edema after remote ischemia in rodents. Surgery 112: 578-586). Vascular occlusion was verified by engorgement and discoloration of the feet. After 3 hours of ischemia, the tourniquets were removed and followed by 3 hours of reperfusion. […] The left lungs were harvested, homogenized in 1.5 ml of potassium phosphate buffer (pH 7.4) and then centrifuged at 14,000 rpm (5 min). […]"}, "BLTR [4]": {"target": "T1, BLTR", "assay": "Intracellular Ca2+ mobilization in HEK293 cells transfected with pGL-CD11b-hBLTR", "format": "cell-based", "design": "expressed in transfected cells; host or cells: HEK293 (transient transfection with pGL-CD11b-hBLTR, SuperFect)", "details": "LTB4 100 nM; transiently transfected HEK293 cells"}, "[5]": {"tested_on": "PMN infiltration into ear skin", "assay": "Ear skin inflammation model (topical application, PMN infiltration by MPO)", "format": "in vivo, mouse", "details": "for increase in PMN infiltration into skin compared to vehicle control: LTB4 1 μg topical to ear, MPO; for percent inhibition of LTB4-induced PMN infiltration: 10 μg topical 5 min before LTB4 1 μg", "description": "Ear skin inflammation model. hBLTR transgenic and wt mice were anesthetized and 16-phenoxyl-LXA4 (15(S)-16-phenoxy-17,18,19,20-tetranol-LXA4 methyl ester, prepared by total synthesis as in ref. 7 by Prof. N. A. Petasis and colleagues, Dept. of Chemistry, Univ. of Southern California) (10 μg) in 10 μl of acetone was applied to the inner side of right ears. Acetone alone was applied to the left ear as a vehicle control. Five min later, LTB4 (5S, 12R-dihydroxy-6,8,10,14-eicosatetraenoic acid; 1 μg) in 10 μl acetone was applied to both ears. Ear skin punch biopsies were collected for leukocyte MPO activity (Takano, T., Clish, C. B., Gronert, K., Petasis, N. A. and Serhan C. N. 1997. Neutrophil-mediated changes in vascular permeability are inhibited by topical application of aspirin-triggered 15-epi-lipoxin A4 and novel lipoxin B4 stable analogues. J. Clin. Invest. 101: 819-826)."}}}
{"smiles": "CCCCC[C@H](O)/C=C/C=C\\C=C\\C=C\\[C@@H](O)[C@@H](O)CCCC(=O)O", "note": "(relative stereo) [LXA4, 5(S), 6(R), 15(S)-trihydroxy-7,9,13-trans-11-cis eicosatetraenoic acid]", "values": [{"measurement": "effect on LTB4-evoked extracellular acidification rate", "setting": "[1]", "result": "nor did LXA4 or its analogs affect LTB4-evoked extracellular acidification rate"}, {"measurement": "competition with [3H]-LTB4 binding", "setting": "BLTR [2]", "result": "did not compete with [^3H]-LTB4 binding"}]}
{"smiles": "COC(=O)CCC[C@H](O)[C@H](O)C=CC=CC=CC=C[C@@H](O)COc1ccc(F)cc1", "note": "[ATL, 15(R)-16-para-fluoro-phenoxy-17,18,19,20-tetranol-LXA4 methyl ester]", "values": [{"measurement": "PMN infiltration into lungs vs vehicle", "setting": "[3]; 10 μg intravenous prior to ischemia-reperfusion, p=0.04, n=3", "result": "significantly diminished PMN infiltration into lungs"}, {"measurement": "inhibition of PMN infiltration (change)", "setting": "[3]; intravenous prior to ischemia-reperfusion", "result": "40-60%"}]}
{"smiles": "CCCCCC=CC[C@@H](O)C=CC=CC=C[C@@H](O)CCCC(=O)O", "note": "[LTB4, 5S, 12R-dihydroxy-6,8,10,14-eicosatetraenoic acid, reference compound]", "values": [{"measurement": "mobilization of intracellular Ca2+", "setting": "BLTR [4]", "result": "intracellular Ca^2+ was mobilized"}, {"measurement": "increase in PMN infiltration into skin compared to vehicle control", "setting": "[5]; hBLTR transgenic mice, n=10", "result": "7.4±0.9", "unit": "fold"}, {"measurement": "increase in PMN infiltration into skin compared to vehicle control", "setting": "[5]; wt mice, n=7", "result": "3.2±0.5", "unit": "fold"}]}
{"smiles": "COC(=O)CCC[C@H](O)[C@H](O)C=CC=CC=CC=C[C@H](O)COc1ccccc1", "note": "[LXA4 stable analog, 15(S)-16-phenoxy-17,18,19,20-tetranol-LXA4 methyl ester]", "values": [{"measurement": "number of PMN whose infiltration was inhibited, hBLTR transgenic relative to wt mice", "setting": "[5]; MPO activities converted to total number of PMN, 10 μg topical", "result": 3, "unit": "times"}, {"measurement": "percent inhibition of LTB4-induced PMN infiltration", "setting": "[5]; hBLTR transgenic mice", "result": "~45", "unit": "%"}, {"measurement": "effect on PMN infiltration", "setting": "[5]; hBLTR transgenic mice, 10 μg topical, representative data from n=3", "result": "clearly able to block PMN infiltration"}, {"measurement": "percent inhibition of LTB4-induced PMN infiltration", "setting": "[5]; wt mice", "result": "~37", "unit": "%"}]}
